Reference: patent US20230058171A1, “NEW ORAL PHARMACEUTICAL COMPOSITION FOR CANCER THERAPY” (BOEHRINGER INGELHEIM INTERNATIONAL GMBH, priority 2021, published 2023)
Like-named read-outs stand apart in the source and are kept apart here.

Assay: Preliminary pharmacokinetics in trial 1403-0001 (Arm A D1 q3w, Arm B D1 D8 q4w)
Type: in vivo, human
Settings: for % AUCtz-∞ / AUC0-∞, norm / CL/F / Cmax, norm / AUC(0-inf) / Cmax / Vd/F / half-life: gMean; for Cmax, norm (gMean) / % AUCtz-∞ (gMean) / AUC0-∞, norm, gMean (gCV [%]) / CL/F (gMean): Arm A D1 q3w; for AUC(0-inf) / Cmax / Vd/F / half-life / Tmax: human, plasma, oral; for AUC(0-inf): read-out: AUC0-∞; for Cmax: read-out: Cmax; for Vd/F: read-out: Vz/F; for half-life: read-out: t1/2 (converted); for Tmax: median, read-out: tmax
Excerpt: Preliminary PK data were available from the first 45 treated patients in study 1403-0001. The exploratory PK analysis is based on planned blood sampling time-points and the results are subject to change because not all samples from these patients have been analyzed yet. Therefore, AUCs may be incomplete. In addition, information on the absorption, distribution, and elimination of the MDM2 antagonist of formula I are descriptive given the limited exploratory PK results available up to this point in time.
Consequently the preliminary PK results support the dose selection of 45 mg (and alternatively even of 30 mg) combined with the once in three weeks (D1 q3w) dose regimen. The tmax of the MDM2 antagonist of formula I is generally between 4 and 6 hours after tablet intake.

[1] = 5 mg, Day 1, D1 D8 q4w (Arm B), N=3
[2] = 5 mg, Day 8, D1 D8 q4w (Arm B), N=3
[3] = 10 mg, Day 1, D1 D8 q4w (Arm B), N=3
[4] = 10 mg, Day 8, D1 D8 q4w (Arm B), N=3
[5] = 15 mg, Day 1, D1 D8 q4w (Arm B), N=3
[6] = 15 mg, Day 8, D1 D8 q4w (Arm B), N=2
[7] = 20 mg, Day 1, D1 D8 q4w (Arm B), N=3
[8] = 20 mg, Day 8, D1 D8 q4w (Arm B), N=3
[9] = 30 mg, Day 1, D1 D8 q4w (Arm B), N=4
[10] = 30 mg, Day 8, D1 D8 q4w (Arm B), N=3
[11] = 45 mg, Day 1, D1 D8 q4w (Arm B), N=2
[12] = 60 mg, Day 1, D1 D8 q4w (Arm B), N=2

## Cc1c(C(=O)O)ccc2c3n(nc12)[C@@H]1[C@H](C3)N(CC2CC2)[C@@]2(C(=O)Nc3cc(Cl)ccc32)[C@H]1c1cccc(Cl)c1F [MDM2-antagonist of formula I, (2′S,3′S,3a'S,10a'S)-6-chloro-3′-(3-chloro-2-fluorophenyl)-1′-(cyclopropylmethyl)-6′-methyl-2-oxo-1,2,3′,3a′,10′,10a′-hexahydro-1′H-spiro[indole-3,2′-pyrrolo[2′,3′:4,5]pyrrolo[1,2-b]indazole]-7′-carboxylic acid]
[1]
  % AUCtz-∞: 10.2%
  AUC0-∞, norm: 3530 nmol·h/L/mg
  CL/F: 7.99 mL/min
  Cmax, norm: 51.9 nmol/L/mg
  AUC(0-inf): 17.6 µM·h
  Cmax: 260 nM
  Vd/F: 38.2 L
  half-life: 55.3 h
  Tmax: 4 h
[2]
  % AUCtz-∞: 30.2%
  AUC0-∞, norm: 3860 nmol·h/L/mg
  CL/F: 7.31 mL/min
  Cmax, norm: 67.2 nmol/L/mg
  AUC(0-inf): 19.3 µM·h
  Cmax: 336 nM
  Vd/F: 29.2 L
  half-life: 46.2 h
  Tmax: 4 h
[3]
  % AUCtz-∞: 10.8%
  AUC0-∞, norm: 5230 nmol·h/L/mg
  CL/F: 5.39 mL/min
  Cmax, norm: 63.8 nmol/L/mg
  AUC(0-inf): 52.3 µM·h
  Cmax: 638 nM
[4]
  % AUCtz-∞: 31.6%
  AUC0-∞, norm: 4840 nmol·h/L/mg
  CL/F: 5.82 mL/min
  Cmax, norm: 71.4 nmol/L/mg
[5]
  % AUCtz-∞: 2.89%
  AUC0-∞, norm: 2520 nmol·h/L/mg
  CL/F: 11.2 mL/min
  Cmax, norm: 55.4 nmol/L/mg
[6]
  % AUCtz-∞: 14.8%
  AUC0-∞, norm: 1720 nmol·h/L/mg
  CL/F: 16.4 mL/min
15 mg, Day 8, D1 D8 q4w (Arm B), N=3
  Cmax, norm: 51.7 nmol/L/mg
[7]
  % AUCtz-∞: 8.63%
  AUC0-∞, norm: 4440 nmol·h/L/mg
  CL/F: 6.34 mL/min
  Cmax, norm: 68.4 nmol/L/mg
[8]
  % AUCtz-∞: 25.9%
  AUC0-∞, norm: 3050 nmol·h/L/mg
  CL/F: 9.22 mL/min
  Cmax, norm: 60.9 nmol/L/mg
[9]
  % AUCtz-∞: 6.72%
  AUC0-∞, norm: 2660 nmol·h/L/mg
  CL/F: 10.6 mL/min
  Cmax, norm: 48.0 nmol/L/mg
[10]
  % AUCtz-∞: 18.9%
  AUC0-∞, norm: 2160 nmol·h/L/mg
  CL/F: 13.0 mL/min
  Cmax, norm: 44.3 nmol/L/mg
[11]
  % AUCtz-∞: 4.72%
  AUC0-∞, norm: 2150 nmol·h/L/mg
  CL/F: 13.1 mL/min
  Cmax, norm: 51.7 nmol/L/mg
[12]
  % AUCtz-∞: 7.08%
  AUC0-∞, norm: 1460 nmol·h/L/mg
  CL/F: 19.3 mL/min
  Cmax, norm: 32.7 nmol/L/mg
60 mg, Day 8, D1 D8 q4w (Arm B), N=2
  Cmax, norm: 31.5 nmol/L/mg
20 mg, N=2
  Cmax, norm (gMean): 58.2 nmol/L/mg
30 mg, N=3
  % AUCtz-∞ (gMean): 24.6%
  AUC0-∞, norm, gMean (gCV [%]): 3760 (46.8) nmol*h/L/mg
  CL/F (gMean): 7.50 mL/min
  Cmax, norm (gMean): 96.4 nmol/L/mg
45 mg, N=6
  % AUCtz-∞ (gMean): 29.2%
  AUC0-∞, norm, gMean (gCV [%]): 3040 (53.6) nmol*h/L/mg
  CL/F (gMean): 9.28 mL/min
  Cmax, norm (gMean): 60.2 nmol/L/mg
50 mg, N=4
  % AUCtz-∞ (gMean): 19.7%
  AUC0-∞, norm, gMean (gCV [%]): 6280 (37.3) nmol*h/L/mg
  CL/F (gMean): 4.49 mL/min
  Cmax, norm (gMean): 74.8 nmol/L/mg
60 mg, N=6
  % AUCtz-∞ (gMean): 3.71%
  AUC0-∞, norm, gMean (gCV [%]): 2710 (33.4) nmol*h/L/mg
  CL/F (gMean): 10.4 mL/min
60 mg, N=7
  Cmax, norm (gMean): 54.5 nmol/L/mg
80 mg, N=2
  % AUCtz-∞ (gMean): 2.54%
  AUC0-∞, norm, gMean (gCV [%]): 2570 (29.2) nmol*h/L/mg
  CL/F (gMean): 11.0 mL/min
  Cmax, norm (gMean): 49.2 nmol/L/mg
